Laboratory results: the supplement of paper PMC10883282
± gives the standard deviation of the averaged measurements.

What was measured:
Test in all cases: relative viability vs DMSO control (72 h) (fraction); higher = more viable cells
[1] = system: A204
Method in brief: (§1)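 Densities for seeding sarcoma cell lines into 384-well plates were set to give 80–90% confluence. After 24 h, 2.5 µl of serially diluted compound from source plates of 10 mM to 0.0002 mM went in, and plates stayed 72 h at 37 °C in 5% CO2 with 0.1% DMSO vehicle and a 5 µM positive control. Percent growth from ATPLite readings, averaged over up to triplicate wells, served as relative viability, rescaled so 1 means full and 0 means none.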

[2] = system: G401
Method in brief: as §1

[3] = system: HS729
Method in brief: as §1

[4] = system: KHOS-240S
Method in brief: as §1

[5] = system: MES-SA
Method in brief: as §1

[6] = system: RD
Method in brief: as §1

[7] = system: SK-ES-1
Method in brief: as §1

[8] = system: SK-LMS-1
Method in brief: as §1

[9] = system: SW1353
Method in brief: as §1

[10] = system: SW872
Method in brief: as §1

[11] = system: SW982
Method in brief: as §1

[12] = system: VA-ES-BJ
Method in brief: as §1

CS(=O)(=O)CCNCc1ccc(-c2ccc3ncnc(Nc4ccc(OCc5cccc(F)c5)c(Cl)c4)c3c2)o1 [Lapatinib]
Details | relative viability
[1], 0.00017 µM | 1.06 ± 0.048
[1], 0.00051 µM | 1.07 ± 0.047
[1], 0.00152 µM | 1.06 ± 0.048
[1], 0.00457 µM | 1.07 ± 0.055
[1], 0.01372 µM | 1.06 ± 0.012
[1], 0.04115 µM | 1.08 ± 0.062
[1], 0.1235 µM | 1.07 ± 0.049
[1], 0.3704 µM | 1.09 ± 0.086
[1], 1.111 µM | 1.05 ± 0.02
[1], 3.333 µM | 0.701 ± 0.099
[1], 10 µM | 0.0212 ± 0.014
[2], 0.00017 µM | 1.01 ± 0.029
[2], 0.00051 µM | 1.01 ± 0.012
[2], 0.00152 µM | 1.01 ± 0.012
[2], 0.00457 µM | 1.01 ± 0.027
[2], 0.01372 µM | 1.02 ± 0.035
[2], 0.04115 µM | 1.04 ± 0.014
[2], 0.1235 µM | 1.01 ± 0.015
[2], 0.3704 µM | 0.966 ± 0.049
[2], 1.111 µM | 1.02 ± 0.018
[2], 3.333 µM | 1.01 ± 0.042
[2], 10 µM | 0.789 ± 0.089
[3], 0.00017 µM | 0.93 ± 0.042
[3], 0.00051 µM | 0.935 ± 0.057
[3], 0.00152 µM | 0.873 ± 0.049
[3], 0.00457 µM | 0.878 ± 0.035
[3], 0.01372 µM | 0.939 ± 0.018
[3], 0.04115 µM | 0.921 ± 0.065
[3], 0.1235 µM | 0.93 ± 0.046
[3], 0.3704 µM | 0.887 ± 0.1
[3], 1.111 µM | 0.879 ± 0.062
[3], 3.333 µM | 0.794 ± 0.024
[3], 10 µM | 0.134 ± 0.12
[4], 0.00017 µM | 1.04 ± 0.055
[4], 0.00051 µM | 1.05 ± 0.045
[4], 0.00152 µM | 1.07 ± 0.043
[4], 0.00457 µM | 1.06 ± 0.042
[4], 0.01372 µM | 1.09 ± 0.06
[4], 0.04115 µM | 1.09 ± 0.046
[4], 0.1235 µM | 1.07 ± 0.021
[4], 0.3704 µM | 1.09 ± 0.029
[4], 1.111 µM | 1.08 ± 0.013
[4], 3.333 µM | 0.65 ± 0.11
[4], 10 µM | 0.345 ± 0.11
[5], 0.00017 µM | 0.933 ± 0.023
[5], 0.00051 µM | 0.918 ± 0.043
[5], 0.00152 µM | 0.904 ± 0.039
[5], 0.00457 µM | 0.912 ± 0.034
[5], 0.01372 µM | 0.923 ± 0.011
[5], 0.04115 µM | 0.931 ± 0.021
[5], 0.1235 µM | 0.945 ± 0.039
[5], 0.3704 µM | 0.9335 ± 0.0061
[5], 1.111 µM | 0.915 ± 0.045
[5], 3.333 µM | 0.683 ± 0.023
[5], 10 µM | 0.0484 ± 0.039
[6], 0.00017 µM | 1.09 ± 0.095
[6], 0.00051 µM | 1.1 ± 0.069
[6], 0.00152 µM | 1.09 ± 0.083
[6], 0.00457 µM | 1.11 ± 0.062
[6], 0.01372 µM | 1.08 ± 0.071
[6], 0.04115 µM | 1.12 ± 0.053
[6], 0.1235 µM | 1.09 ± 0.051
[6], 0.3704 µM | 1.1 ± 0.038
[6], 1.111 µM | 1.1 ± 0.041
[6], 3.333 µM | 0.98 ± 0.05
[6], 10 µM | 0.0224 ± 0.013
[7], 0.00017 µM | 1.05 ± 0.056
[7], 0.00051 µM | 1.04 ± 0.042
[7], 0.00152 µM | 1.02 ± 0.063
[7], 0.00457 µM | 0.98 ± 0.042
[7], 0.01372 µM | 1.06 ± 0.077
[7], 0.04115 µM | 0.985 ± 0.05
[7], 0.1235 µM | 1.02 ± 0.053
[7], 0.3704 µM | 1.02 ± 0.067
[7], 1.111 µM | 0.983 ± 0.041
[7], 3.333 µM | 0.772 ± 0.048
[7], 10 µM | 0.0529 ± 0.035
[8], 0.00017 µM | 1.1 ± 0.065
[8], 0.00051 µM | 1.09 ± 0.019
[8], 0.00152 µM | 1.08 ± 0.032
[8], 0.00457 µM | 1.13 ± 0.045
[8], 0.01372 µM | 1.17 ± 0.066
[8], 0.04115 µM | 1.15 ± 0.026
[8], 0.1235 µM | 1.07 ± 0.042
[8], 0.3704 µM | 1.1 ± 0.064
[8], 1.111 µM | 1.11 ± 0.038
[8], 3.333 µM | 0.824 ± 0.046
[8], 10 µM | 0.361 ± 0.03
[9], 0.00017 µM | 0.964 ± 0.021
[9], 0.00051 µM | 0.962 ± 0.041
[9], 0.00152 µM | 0.948 ± 0.039
[9], 0.00457 µM | 0.954 ± 0.035
[9], 0.01372 µM | 0.932 ± 0.046
[9], 0.04115 µM | 0.905 ± 0.037
[9], 0.1235 µM | 0.906 ± 0.04
[9], 0.3704 µM | 0.85 ± 0.022
[9], 1.111 µM | 0.863 ± 0.024
[9], 3.333 µM | 0.847 ± 0.023
[9], 10 µM | 0.807 ± 0.025
[10], 0.00017 µM | 1.03 ± 0.018
[10], 0.00051 µM | 1.03 ± 0.058
[10], 0.00152 µM | 1.03 ± 0.045
[10], 0.00457 µM | 1.02 ± 0.018
[10], 0.01372 µM | 1.01 ± 0.055
[10], 0.04115 µM | 1.05 ± 0.026
[10], 0.1235 µM | 1.05 ± 0.05
[10], 0.3704 µM | 1.05 ± 0.076
[10], 1.111 µM | 1.04 ± 0.084
[10], 3.333 µM | 0.895 ± 0.02
[10], 10 µM | 0.0477 ± 0.057
[11], 0.00017 µM | 1.04 ± 0.045
[11], 0.00051 µM | 1.04 ± 0.034
[11], 0.00152 µM | 1.06 ± 0.046
[11], 0.00457 µM | 1.03 ± 0.071
[11], 0.01372 µM | 1.05 ± 0.024
[11], 0.04115 µM | 1.06 ± 0.041
[11], 0.1235 µM | 1.07 ± 0.052
[11], 0.3704 µM | 1.09 ± 0.063
[11], 1.111 µM | 1.09 ± 0.086
[11], 3.333 µM | 0.968 ± 0.035
[11], 10 µM | 0.0107 ± 0.00026
[12], 0.00017 µM | 1.019 ± 0.008
[12], 0.00051 µM | 1.01 ± 0.026
[12], 0.00152 µM | 1.02 ± 0.034
[12], 0.00457 µM | 1.03 ± 0.014
[12], 0.01372 µM | 1.01 ± 0.019
[12], 0.04115 µM | 0.992 ± 0.032
[12], 0.1235 µM | 0.993 ± 0.033
[12], 0.3704 µM | 0.979 ± 0.059
[12], 1.111 µM | 0.985 ± 0.049
[12], 3.333 µM | 0.927 ± 0.04
[12], 10 µM | 0.451 ± 0.025
